Measured values taken from ChEMBL document CHEMBL1141161, “Structure of aldehyde reductase holoenzyme in complex with the potent aldose reductase inhibitor fidarestat: implications for inhibitor binding and selectivity” (J Med Chem, 2005).

Biological target: T1, Aldo-keto reductase family 1 member A1 (Sus scrofa, UniProt P50578)
T1 sequence (P50578 whole entry): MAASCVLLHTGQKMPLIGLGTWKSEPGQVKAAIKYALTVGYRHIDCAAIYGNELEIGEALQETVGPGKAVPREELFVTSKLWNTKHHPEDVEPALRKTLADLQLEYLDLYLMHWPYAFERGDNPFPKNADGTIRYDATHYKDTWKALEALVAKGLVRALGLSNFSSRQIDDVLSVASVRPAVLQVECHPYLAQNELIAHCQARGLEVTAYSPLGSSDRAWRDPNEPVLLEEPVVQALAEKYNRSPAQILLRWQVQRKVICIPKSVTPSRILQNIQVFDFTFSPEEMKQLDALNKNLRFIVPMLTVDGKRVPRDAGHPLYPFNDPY
Experiment: Inhibitory concentration against porcine ALR1 Aldehyde reductase using DL-glyceraldehyde

Row | IC50 [µM] | Structure (SMILES)
1 | 17.8 | NC(=O)[C@H]1C[C@]2(NC(=O)NC2=O)c2cc(F)ccc2O1
2 | 2.5 | NC(=O)[C@@H]1C[C@]2(NC(=O)NC2=O)c2cc(F)ccc2O1
